Measurements published in patent US20060121498A1, “Enzymes involved in apoptosis” (EiRx Therapeutics Limited, priority 2003, published 2006).
Like-named read-outs stand apart in the source and are kept apart here.

What was measured:
[1] = cited from earlier work
[2] = test system: neutrophils; assay: Neutrophil apoptosis, sub G1 analysis (DNA fragmentation); format: cell-based, human
Procedure: Neutrophils are isolated from the blood as described in WO 02/04657 and resuspended at a concentration of 2×10^6/ml. Five hundred microlitres are pipetted into wells of a 24 well plate and incubated in the presence or absence of survival factors.
After this incubation, the neutrophils are carefully resuspended by gentle agitation and the total contents of the well are placed into an eppendorf and centrifuged @2800 rpm for 2 min @ RT in a minifuge. The cell pellet is carefully resuspended in 300 μl of ice cold hypotonic fluorochrome solution (50 μg/ml Propidium Iodide, 0.1% Sodium Citrate and 0.1% Triton X-100) and placed in a fridge for 24 h @ 4° C.
Prepared samples are analysed with a FacsCalibre flow cytometer (Becton Dickinson) using double discrimination to ensure single cell suspension with Log Forward and Side Scatter Parameter acquisition.
Neutrophils are seeded at 2×10^6/ml in a 24 well plate in full culture medium (1 ml/well). A PI3K inhibitor (Ly94002) is added to the neutrophils to a final concentration of 20 μM prior to the addition of GM-CSF (50 units/ml). Control wells received either no GM-CSF or GM-CSF (50 units/ml) in the absence of inhibitor. Neutrophils are cultured for 18 h at 37° C. prior to harvest and prepared for sub G1 analysis, as previously described.
Neutrophils are seeded at 2×10^6/ml in a 24 well plate in full culture medium (1 ml/well). […]

[3] = test system: CAL27 tumour cell line; conditions: relatively low basal DPD activity; cited from earlier work
[4] = test system: MIAPaCa-2 and HuTu80; conditions: cited from earlier work
[5] = test system: MIAPaCa-2 cells; conditions: nude mouse, subcutaneous MIAPaCa-2; cited from earlier work
[6] = test system: Walker 256 tumour; conditions: diet of 5.5% GLA; cited from earlier work
[7] = test system: bone marrow derived DC; conditions: pretreatment; cited from earlier work
[8] = test system: MCF-7 human breast cancer cells; conditions: inhibition of FAS with cerulenin; cited from earlier work
[9] = test system: redox related genes such as heme oxygenase 1 and Glutathione reductase; conditions: cited from earlier work
[10] = test system: TF-1 cells; assay: Overexpression of identified genes in TF1 cells, viability by FSc/SSc; format: cell-based, human; conditions: 96 h post transduction, versus control plasmid Pms*H
Text: To assess the apoptotic activity of the apoptosis-associated genes identified herein, TF1 cells are transduced with either a plasmid expressing the gene of interest coding sequence or a control plasmid (PMs*H). The gene coding sequence encoding the amino acid sequence set out in Table 1 is cloned into the retroviral expression vector pMSCV (Clontech). Plasmids are transfected into the retroviral packaging cell line Phoenix 293 (Standford) using the CalPhos Mammalian Transfection Kit (Clontech) according to the manufacturer's instructions. Retrovirus is harvested 72 hours later. Retrovirus is transduced to TF 1 cells by incubation for 18 hours. Media is changed and cells are incubated for an additional 96 hours.
The cells are examined for viability after 96 hours using forward scatter/side scatter parameters.

[11] = test system: TF-1 cells; assay: TF-1 apoptosis by sub G1 analysis; format: cell-based, human; conditions: 48 h with GM-CSF (approximately 55% in its absence)
Procedure: TF-1 cells are cultured for 48 h in the presence or absence of GM-CSF (2 ng/ml). Cells are then harvested by centrifugation (1000 rpm, for 10 min) and washed in PBS. The pellet is resuspended in PBS (2×10^5 cells/ml) and 1 ml is then added in a dropwise fashion to ice cold 70% EtoH whilst continuously vortexing. Cells are then permeabilized by incubating at −20° C. for 24 h. To stain DNA, cells are centrifuged and washed in PBS. Cells are resuspended in 500 μl Propidium Iodide Buffer (Propidium iodide (50 μg/ml; Sigma); RNAse A (50 μg/ml; Sigma) in Phosphate Buffered Saline (PBS; Sigma) for 15 min in the dark before flow cytometric analysis using a FacsCalibre (Becton Dickinson). Analysis is performed using Cell Quest software.

[12] = test system: TF-1 cells; assay: TF-1 apoptosis by light scatter analysis (live gate); format: cell-based, human; conditions: 48 h with GM-CSF 2 ng/ml (35% upon factor withdrawal)
Procedure: Light Scatter Analysis takes advantage of the fact that by using the laser beam of a flow cytometer one can determine the size (Forward Scatter) and granularity (Side Scatter) of a cell. The morphological changes associated with apoptosis, such as decreased size (shrinkage) and granularity affect these parameters. As a consequence, cells undergoing apoptosis will move to the left and slightly down, from the parameters of a healthy population.
TF-1 cells are plated into 24 well plates (2×10^5/ml) and are cultured for 48 h in the presence or absence of GM-CSF (2 ng/ml). Cells are then harvested by centrifugation (1000 rpm, for 10 min) and washed in PBS. The pellet is resuspended in PBS (2×10^5 cells/ml) and acquired by a FacsCalibre. Forward and Side scatter parameters are assessed using Cell Quest software.
Culturing TF-1 cells in the absence of GM-CSF induces cell death. This death induces morphological changes in the Forward and Side Scatter parameters that is detected by FacsCalibre analysis. Consequently, by observing the percentage of cells in the live gate (which is an arbitrary region pre-set on a healthy population of TF-1 cells grown in the presence of GM-CSF (2 ng/ml)), one observes that there is a decrease in the percentage of cells with these light scatter parameters, when cytokine is withdrawn.

[13] = relatively high basal DPD activity

In the case of `O=c1[nH]cc(F)c(=O)[nH]1` [5FU, 5-fluorouracil], the “patients suffering from grade IV neutropenia” value ([1]; patients with a decreased DPD activity) is given as 55% and the “patients suffering from grade IV neutropenia” value ([1]; patients with a normal DPD activity) is given as 13%.

For `CCCCCCCCCCCCCCCCCCOC(=O)OC1C(O)C(O)C(CO)C(O)C1OC` (stereo not shown) [AKT inhibitor], the “GM-CSF mediated survival, sub G1 analysis” value ([2]; inhibitor 20 μM plus GM-CSF 50 units/ml, 18 h) was “survival is abrogated”.

In the case of `Oc1cc(O)c(Cl)cn1` [CDHP, 5-chloro-2,4-dihydroxypyridine], the 5-FU cytotoxicity [3] is given as “did not have any effect on 5-FU cytotoxicity”, the “molar ratio (CDHP:5-FU) at maximum effect” value ([4]; enhancement of 5-FU cytotoxicity) is given as “more than 0.2” and the “cell proliferation, CDHP by itself” value ([4]; in vitro study) is given as “did not influence cell proliferation by itself”. For the same compound, the 5-FU cytotoxicity [4, 13] was “enhanced 5-FU cytotoxicity in a concentration-dependent manner” and the “5-fluorouracil (5-FU) degradation” value [4, 13] was “inhibit 5-fluorouracil (5-FU) degradation”.

In the case of `O=c1[nH]c(=O)n(C2CCCO2)cc1F` (stereo not shown) [FT, tegafur], the tumour growth inhibition [5] is listed as 21+/−25%.

For `CCCCC/C=C\C/C=C\C/C=C\CCCCC(=O)O` [GLA, Gamma-linolenic acid], the “decrease in CTP1 activity” value [6] is listed as 62% and the “reduction of tumour growth” value [6] is listed as 45%.

In the case of `N[C@H]1CONC1=O` [L-cycloserine], the “endogenous ceramide levels and tumor-induced DC apoptosis” value [7] is given as “reduced endogenous ceramide levels and protected DC from tumor-induced apoptosis”.

In the case of `CCCCCCCCCCCCCC(=O)O[C@@H]1[C@@H](C)[C@@]2(O)[C@@H](C=C(CO)C[C@]3(O)C(=O)C(C)=C[C@@H]23)[C@@H]2C(C)(C)[C@]12OC(C)=O` [PMA], the “endogenous ceramide levels and tumor-induced DC apoptosis” value [7] is given as “reduced endogenous ceramide levels and protected DC from tumor-induced apoptosis”.

For `C/C=C/C/C=C/CCC(=O)[C@H]1O[C@H]1C(N)=O` [cerulenin], the “CPT-1 and fatty acid oxidation” value [8] is given as “causes carnitine palmitoyltransferase-1 (CPT-1) inhibition and fatty acid oxidation inhibition”.

In the case of `CCOC(=O)[C@@]1(CCCCCCOc2ccc(Cl)cc2)CO1` [etomoxir], the “expression of redox related genes” value [9] is listed as “induces up regulation of redox related genes”.

In the case of ELAFIN, the “apoptosis/viability by FSc/SSc parameters” value [10] is reported as “induces apoptosis in TF-1 cells”.

In the case of “GM-CSF: 22 kDa proinflammatory cytokine released by several activated cell types including monocytes and T cells”, the “percentage of cells with a sub G1 profile” value ([2]; neutrophils cultured overnight with GM-CSF (65% without)) is reported as 9.7%, the “cells with sub-G1 profiles” value [11] is reported as 5% and the “percentage of cells in the live gate” value [12] is reported as 77%.
